Reference: paper PMC6348423, “Rapid Mapping of Protein Interactions Using Tag‐Transfer Photocrosslinkers” (Angewandte Chemie (International Ed. in English), 2018)
Ends that are not written are not given here. Peptide text beside a SMILES is read from it. * marks the point of attachment. MTS‑TFMD = trifluoromethyl phenyl diazirine photocrosslinker tag, disulfide-linked to Cys via MTS; X2 = CC1(CCS*)N=N1

B1: OmpA: E. coli β-barrel outer membrane protein, substrate of the periplasmic chaperone Skp (protein, UniProt P0A910 22-346, looked up)
Outer membrane protein A: APKDNTWYTGAKLGWSQYHDTGFINNNGPTHENQLGAGAFGGYQVNPYVGFEMGYDWLGRMPYKGSVENGAYKAQGVQLTAKLGYPITDDLDIYTRLGGMVWRADTKSNVYGKNHDTGVSPVFAGGVEYAITPEIATRLEYQWTNNIGDAHTIGTRPDNGMLSLGVSYRFGQGEAAPVVAPAPAPAPEVQTKHFTLKSDVLFNFNKATLKPEGQAALDQLYSQLSNLDPKDGSVVVLGYTDRIGSDAYNQGLSERRAQSVVDYLISKGIPADKISARGMGESNPVTGNTCDNVKQRAALIDCLAPDRRVEIEVKGIKDVVTQPQA

Legend:
MCL-1 = target: T1, MCL-1 (Homo sapiens, UniProt Q07820); assay: Photo-crosslinking of labelled BID80-102 peptides to MCL-1, SDS-PAGE band intensity; settings: 20 μM labelled peptide + 20 μM MCL-1, TBS pH 7.6, 365 nm UV LED, 1 min, SDS-PAGE band intensity of crosslinked vs non-crosslinked MCL-1, value ± SD of three repeats
T1 construct: made in house
Method: Cross-linking experiments
For all irradiation methods, samples were prepared in the following way. For crosslinking of MCL-1/BID80-102, 20 μL of a solution containing MTS-diazirine or MTS-TFMD labelled BID80-102 peptide (20 μM) and MCL-1 (20 μM) in buffer 50 mM Tris-HCl, 150 mM NaCl (TBS) pH 7.6 was prepared. […]
This was then placed under a covered LF-206.LS 6 W 365 nm lamp (Uvitec) at a distance of 12 mm from the source for different times up to 30 min. For UV LED chip experiments, acrylic chip chambers were washed with TBS pH 7.6 buffer and 33 µL of sample was added. These were then clamped into the chip holder and irradiated with the 365 nm LED for up to 30 s. A pipette was used to remove the sample from the chip via the lower filling hole. For UV LED tube experiments, 30-130 µL of sample was added to a thin-walled PCR tube and placed inside a 0.5 mL microfuge tube which itself was in a 1.5 mL microfuge tube that had been wrapped in aluminium foil (to reflect the UV irradiation within the containers). Samples were irradiated with the 365 nm LED for 30 s. To crosslink MCL-1 BID80-102, samples were irradiated using this apparatus for 1 min.
Separation and enrichment of cross-linked products
To separate and/or enrich crosslinked samples three methods were used as described in the main text.
Table S1: Affinity (EC50) of labelled BID80-102 peptides to MCL-1 as determined by competition fluorescence anisotropy assay. Crosslinking efficiency of labelled BID80-102 peptides to MCL-1 based on the SDS-PAGE band intensity of crosslinked and non-crosslinked […]
The values and standard deviations are results of three repeats. n.d = not determined as binding was too weak to enable an accurate fit to be obtained.
BID peptide EC50 for affinity to MCL-1 (nM) Crosslinked Mcl-1 (%)

Skp = settings: read-out: KD of Skp/OmpA complex; cited from earlier work

T1 sequence (Q07820 whole entry): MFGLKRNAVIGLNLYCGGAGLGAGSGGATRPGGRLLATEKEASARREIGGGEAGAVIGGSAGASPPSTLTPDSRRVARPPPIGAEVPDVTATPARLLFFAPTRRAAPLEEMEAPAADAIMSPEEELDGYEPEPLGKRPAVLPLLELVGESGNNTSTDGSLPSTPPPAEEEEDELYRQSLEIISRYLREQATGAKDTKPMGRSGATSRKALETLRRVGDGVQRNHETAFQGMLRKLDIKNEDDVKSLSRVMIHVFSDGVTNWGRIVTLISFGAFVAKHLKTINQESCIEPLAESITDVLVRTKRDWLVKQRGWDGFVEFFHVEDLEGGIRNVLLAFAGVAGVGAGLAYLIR

Molecule | Crosslinked Mcl-1 (crosslinking efficiency) (MCL-1; SD) [%] | other results
CC[C@H](C)[C@H](NC(=O)[C@H](CC(N)=O)NC(=O)[C@H](CCCNC(=N)N)NC(=O)[C@@H](NC(=O)[C@@H](NC(=O)[C@H](CC(=O)O)NC(=O)[C@H](CCC(=O)O)NC(C)=O)[C@@H](C)CC)[C@@H](C)CC)C(=O)N[C@@H](C)C(=O)N[C@@H](CCCNC(=N)N)C(=O)N[C@@H](Cc1c[nH]cn1)C(=O)N[C@@H](CC(C)C)C(=O)N[C@@H](C)C(=O)N[C@@H](CCC(N)=O)C(=O)N[C@@H](CSSCCC1(C)N=N1)C(=O)NCC(=O)N[C@@H](CC(=O)O)C(=O)N[C@@H](CO)C(=O)N[C@@H](CCSC)C(=O)N[C@@H](CC(=O)O)C(=O)N[C@@H](CCCNC(=N)N)C(=O)N[C@@H](CO)C(=O)N[C@H](C(=O)N[C@@H](Cc1c[nH]c2ccccc12)C(N)=O)[C@@H](C)CC [MTS-diazirine labelled V93C] (Ac-EDIIRNIARHLAQC(X2)GDSMDRSIW-NH2) | 9 ± 3 | –
CC[C@H](C)[C@H](NC(=O)[C@H](CC(N)=O)NC(=O)[C@H](CCCNC(=N)N)NC(=O)[C@@H](NC(=O)[C@@H](NC(=O)[C@H](CC(=O)O)NC(=O)[C@H](CCC(=O)O)NC(C)=O)[C@@H](C)CC)[C@@H](C)CC)C(=O)N[C@@H](C)C(=O)N[C@@H](CCCNC(=N)N)C(=O)N[C@@H](Cc1c[nH]cn1)C(=O)N[C@@H](CC(C)C)C(=O)N[C@@H](C)C(=O)N[C@@H](CCC(N)=O)C(=O)N[C@H](C(=O)NCC(=O)N[C@@H](CC(=O)O)C(=O)N[C@@H](CO)C(=O)N[C@@H](CCSC)C(=O)N[C@@H](CC(=O)O)C(=O)N[C@@H](CCCNC(=N)N)C(=O)N[C@@H](CO)C(=O)N[C@H](C(=O)N[C@@H](Cc1c[nH]c2ccccc12)C(N)=O)[C@@H](C)CC)C(C)C [WT, reference compound] | – | Crosslinked Mcl-1 (crosslinking efficiency) (MCL-1): 0%
MTS-TMFD labelled V93C: single Cys variant V93C of BID80–102 tagged with MTS-TFMD (EDIIRNIARHLAQC(MTS‑TFMD)GDSMDRSIP; UniProt P55957 80-102, looked up, fragment V93C) | 40 ± 8 | –
B1 | – | Kd (Skp): 0.022 ± 0.016 µM
